The source of these data is US5019394A, “Liposome composition and its production” (Takeda Chemical Industries, Ltd., priority 1987, dated 1991).

Where a name gives a salt, the structure may show the parent alone.

Format in all cases: physicochemical
Data set [1] in a line: Krafft point of anionic surfactants.
Data set [2] in a line: observed phase transition temperature of phospholipids. The following applies: phospholipid.
Data set [3] is described as follows: dissolution of SMT in aqueous 6-CF solution. The note with it: 30 mg in 10 ml, pH 7, room temperature. The method, then:
270 mg of DPPC and 30 mg of DSPC were dissolved in 70 ml of 1:1 mixture of chloroform and isopropylether in a 1--1 beaker. To 10 ml of an aqueous solution of 6-carboxyfluorescein (6-CF), pH 7, which had been prepared beforehand so that the osmotic pressure might be the same as that of the physiological saline, 30 mg of sodium stearoylmethyltaurine (SMT) was added at room temperature. […] Then this solution was added to the solution of the phospholipid in an organic solvent, and emulsified by a probe type sonicator (Ohtake, Japan), to give a w/o type emulsion. Sonication at 50 watt for 30 seconds was repeated 10 times. This emulsion was charged to a rotary evaporator to evaporate off the organic solvent at 60° C. under reduced pressure, to give REV. The pressure in the evaporator was reduced greatly in the initial stage, but then adjusted in the course of evaporation of the organic solvent to prevent bumping. A small amount of the organic solvent remained in REV was further evaporated off by blowing nitrogen gas. […] The entrapment ratio of 6CF in this liposome composition was 33.2% as determined by quantification of 6-Cf entrapped in liposome (Note 1).

Consider `CCCCCCCCCCCCCCCCCS(=O)(=O)[O-].[Na+]` [sodium heptadecanesulfonate], for which the Krafft point in data set [1] stood at 62 °C. Still for that read-out and setting: then `CCCCCCCCCCCCCCCCCCOCCOS(=O)(=O)O` [sodium octadecylether sulfate ester], with 46 °C. With `CCCCCCCCCCCCCCCC(=O)OCC(COP(=O)(O)OCCN)OC(=O)CCCCCCCCCCCCCCC` (centres unmarked) [DPPE, dipalmitoylphosphatidyl ethanolamine], in data set [2], the “observed phase transition temperature” value is 60 °C. In data set [1], `CCCCCCCCCCCCCCCCc1ccc(S(=O)(=O)O)cc1` [sodium hexadecylbenzenesulfonate] gave a Krafft point of 46 °C. As to `CCCCCCCCCCCCc1ccc(S(=O)(=O)O)cc1` [sodium dodecylbenzenesulfonate], the Krafft point in data set [1] came out at 40 °C. Regarding `CCCCCCCCCCCCCCCC(=O)OCC(COP(=O)(O)OCC(O)CO)OC(=O)CCCCCCCCCCCCCCC` (centres unmarked) [DPPG, dipalmitoylphosphatidyl glycerine], the “observed phase transition temperature” value in data set [2] was 41 °C. Turning to `CCCCCCCCCCCCCCCC(=O)NCCS(=O)(=O)O.[Na]` [sodium palmitoyltaurine], the Krafft point in data set [1] stood at 43 °C.

With `CCCCCCCCCCCCCCCCCC(=O)OCC(COP(=O)(O)OCCN)OC(=O)CCCCCCCCCCCCCCCCC` (centres unmarked) [DSPE, distearoylphosphatidyl ethanolamine], the “observed phase transition temperature” value in data set [2] was “above 60 °C”. `CCCCCCCCCCCCCCCCCCOCCOCCOS(=O)(=O)O` [sodium octadecyl diether sulfate ester] came in with a Krafft point in data set [1] of 40 °C. For the molecule `CCCCCCCCCCCCCCCCCC(=O)OCC(COP(=O)([O-])OCC[N+](C)(C)C)OC(=O)CCCCCCCCCCCCCCCCC` (centres unmarked) [DSPC, distearoylphosphatidyl choline], the “observed phase transition temperature” value in data set [2] was 54.9 °C. As to `CCCCCCCCCCCCCCCC(=O)NCCOS(=O)(=O)O` [sodium palmitoyl ethanolamide sulfate ester], in data set [1], the Krafft point was 42 °C. Take `CCCCCCCCCCCCCCCC(=O)OC[C@H](COP(=O)([O-])OCC[N+](C)(C)C)OC(=O)CCCCCCCCCCCCCCC` [DPPC, dipalmitoylphosphatidyl choline]: in data set [2], the “observed phase transition temperature” value was determined as 41.4 °C. `CCCCCCCCCCCCCCCCOS(=O)(=O)[O-].[Na+]` [sodium hexadecyl sulfate] had a Krafft point in data set [1] of 43 °C. As to `CCCCCCCCCCCCCCCCCC(=O)OCC(COP(=O)([O-])OCC[N+](C)(C)C)OC(=O)CCCCCCCCCCCCCCC` (centres unmarked) [SPPC, stearoylpalmitoylphosphatidyl choline], the “observed phase transition temperature” value in data set [2] amounted to 44.0 °C.

`CCCCCCCCCCCCCCc1ccc(S(=O)(=O)O)cc1` [sodium tetradecylbenzenesulfonate] had a Krafft point in data set [1] of 43 °C. On the same count and under the same terms, the result for `CCCCCCCCCCCCCCCC(=O)NCCCOS(=O)(=O)O` [sodium palmitoyl propanolamide sulfate ester] reads 47 °C. For the molecule `CCCCCCCCCCCCCCCCCC(=O)N(C)CCS(=O)(=O)O.[Na]`, the “solubility of SMT in aqueous 6-CF solution” value in data set [3] was “almost insoluble”. In data set [1], this molecule yielded a Krafft point of 58 °C. In data set [1], sodium hexadecyl disulfate ester registered a Krafft point of 39 °C. On the same count and under the same terms, then `CCCCCCCCCCCCCCCCCC(=O)NCCOS(=O)(=O)O` [sodium stearoyl ethanolamide sulfate ester], with 53 °C; and `CCCCCCCCCCCCCCCCCCOS(=O)(=O)[O-].[Na+]` [sodium octadecyl sulfate], with 58 °C. With `CCCCCCCCCCCCCCCC(=O)OCC(COP(=O)([O-])OCC[N+](C)(C)C)OC(=O)CCCCCCCCCCCCC` (centres unmarked) [PMPC, palmitoylmyristoylphosphatidyl choline], in data set [2], the “observed phase transition temperature” value was determined as 27.2 °C. Still for that read-out and setting: then `CCCCCCCCCCCCCCCC(=O)OC(COC(=O)CCCCCCCCCCCCC)COP(=O)([O-])OCC[N+](C)(C)C` (centres unmarked) [MPPC, myristoylpalmitoylphosphatidyl choline], with 35.3 °C; and `CCCCCCCCCCCCCC(=O)OCC(COP(=O)(O)OCCN)OC(=O)CCCCCCCCCCCCC` (centres unmarked) [DMPE, dimyristoylphosphatidyl ethanolamine], with 50 °C. Regarding sodium octadecyl disulfate ester, the Krafft point in data set [1] was 45 °C.

On to `CCCCCCCCCCCCCCCCCC(=O)OCC(COP(=O)(O)OCC(O)CO)OC(=O)CCCCCCCCCCCCCCCCC` (centres unmarked) [DSPG, distearoylphosphatidyl glycerine], for which the “observed phase transition temperature” value in data set [2] came out at 55 °C. With `CCCCCCCCCCCCCCS(=O)(=O)[O-].[Na+]` [sodium tetradecanesulfonate], in data set [1], the Krafft point turned out to be 48 °C. In the case of `CCCCCCCCCCCCCCCCCC(=O)OCC(COP(=O)(O)OCC(N)C(=O)O)OC(=O)CCCCCCCCCCCCCCCCC` (centres unmarked) [DSPS, distearoylphosphatidyl serine], in data set [2], the “observed phase transition temperature” value is ≥ 50 °C.

In the case of `CCCCCCCCCCCCCCCC(=O)OCC(COP(=O)(O)OCC(N)C(=O)O)OC(=O)CCCCCCCCCCCCCCC` (centres unmarked) [DPPS, dipalmitoylphosphatidyl serine], the “observed phase transition temperature” value in data set [2] turned out to be 51 °C.

For the molecule `CCCCCCCCCCCCCC(=O)OCC(COP(=O)(O)OCC(N)C(=O)O)OC(=O)CCCCCCCCCCCCC` (centres unmarked) [DMPS, dimyristoylphosphatidyl serine], in data set [2], the “observed phase transition temperature” value stood at 38 °C.

As for `CCCCCCCCCCCCCC(=O)OC[C@H](COP(=O)([O-])OCC[N+](C)(C)C)OC(=O)CCCCCCCCCCCCC` [DMPC, dimyristoylphosphatidyl choline], the “observed phase transition temperature” value in data set [2] turned out to be 23.9 °C. In the case of `CCCCCCCCCCCCCCCCCCS(=O)(=O)[O-].[Na+]` [sodium octadecanesulfonate], the Krafft point in data set [1] was found to be 70 °C. Still for that read-out and setting: the result for `CCCCCCCCCCCCOS(=O)(=O)[O-].[Na+]` [sodium dodecyl sulfate, reference compound] reads 9 °C. For the molecule dipalmitoyl sphingomyelin [DPSM], the “observed phase transition temperature” value in data set [2] stood at 41 °C. For the molecule `CCCCCCCCCCCCS(=O)(=O)[O-].[Na+]` [sodium dodecanesulfonate], in data set [1], the Krafft point came out at 38 °C. Still for that read-out and setting: then `CCCCCCCCCCCCCCCCCC(=O)NCCS(=O)(=O)O.[Na]` [sodium stearoyltaurine], with 58 °C; and `CCCCCCCCCCCCCCCCCCc1ccc(S(=O)(=O)O)cc1` [sodium octadecylbenzenesulfonate], with 56 °C. As for `CCCCCCCCCCCCCCCS(=O)(=O)[O-].[Na+]` [sodium pentadecanesulfonate], the Krafft point in data set [1] turned out to be 48 °C. As to distearoyl sphingomyelin [DSSM], the “observed phase transition temperature” value in data set [2] came to 57 °C. As for `CCCCCCCCCCCCCCCCCC(=O)NCCCOS(=O)(=O)O` [sodium stearoyl propanolamide sulfate ester], the Krafft point in data set [1] was found to be 57 °C. Turning to `CCCCCCCCCCCCCC(=O)OCC(COP(=O)(O)OCC(O)CO)OC(=O)CCCCCCCCCCCCC` (centres unmarked) [DMPG, dimyristoylphosphatidyl glycrine], the “observed phase transition temperature” value in data set [2] was 23 °C. Molecule `CCCCCCCCCCCCCCCC(=O)N(C)CCS(=O)(=O)O.[Na]` [sodium palmitoylmethyltaurine] returned a Krafft point in data set [1] of 43 °C.

Regarding `CCCCCCCCCCCCCCCCCC(=O)OC(COC(=O)CCCCCCCCCCCCCCC)COP(=O)([O-])OCC[N+](C)(C)C` (centres unmarked) [PSPC, palmitoylstearoylphosphatidyl choline], the “observed phase transition temperature” value in data set [2] worked out at 47.4 °C. In the case of `CCCCCCCCCCCCCCCCS(=O)(=O)[O-].[Na+]` [sodium hexadecanesulfonate], the Krafft point in data set [1] was 57 °C.
